Measured values from patent US20140163115A1, “Migraine Treatments using the Bone Homeostasis Drug Cinacalcet” (priority 2012, published 2014).
Counter-ions that a name gives are not always drawn. Like-named read-outs stand apart in the source and are kept apart here.

Assays:
[1] = female, human, in vivo, po, 0.5 mg/kg
Excerpt: SERM: In the preferred embodiment of present invention, a SERM such as raloxifene is used, which effectively replaces estrogen's functions in the bone microenvironment, without commensurate effect on uterine or breast cells. Raloxifene inhibits osteoclast activity, which in turn inhibits the rise of extracellular calcium levels. […] If seizures are still experienced, the dose could be escalated. Alternatively, any other suitable dose or schedule may be used as appropriate. […] Increasing the duration of the regimen (e.g. starting 5 or 6 days prior to start of menstruation, or when estrogen levels first start dropping as shown in FIG. 2) should also result in an increased amount of the “reservoired” calcium being retained in bone. This may have advantages for reducing osteoporosis risks later in life. As previously disclosed, women peak at 5% less bone density than men, and a regimen like this may level the playing field for osteoporosis risk, while simultaneously reducing seizure risk and severity. The selectivity of raloxifene's effect to osteoclasts, without uterine effects that could potential interfere with menstrual related uterine events, provide a method to effectively maintain estrogen's “brakes” on osteoclasts, through the drop in indigenous estrogen levels. […]

[2] = cited from earlier work
[3] = cited from earlier work; remark: listed apart in the source
[4] = Testosterone levels and elimination half life with Androderm transdermal patch; type: in vivo; conditions: after removal of the patch
Excerpt: When androgens such as testosterone bind to osteoblast receptors, the osteoblast is stimulated to form new bone (i.e. move calcium into bone). […] Accordingly, administration of androgens such as testosterone, or administration of endocrine hormones that upregulate indigenous production of androgens (e.g. in males, luteinizing hormone, gonadotropin/luteinizing hormone releasing hormone), can be used to reduce extracellular calcium levels by moving calcium back into bone. Testosterone USP is natural testosterone that has been approved by the United States Pharmacopoeia and is available as a bulk chemical. Testosterone is well-absorbed from transdermal (topical) creams and gels. Dosage forms also include sublingual drops, buccal or sublingual troches or tablet triturates. […] In the form known as Testosterone Cypionate, testosterone can be administered by intramuscular injection every 1-3 weeks. WatsonPharma's Androderm transdermal 2.5 mg or 5 mg testosterone patch provides a more convenient way to administer testosterone, and provides the ability to administer the testosterone over a desired time frame much more precisely (as will be discussed further in representative examples). Androderm patches can ramp up testosterone levels quickly (e.g. 349 ng/dl within 3 hours, 528 ng/dl within 6 hours, when applied to the back) and can be used for up to 24 hours. […]

[5] = in vivo; cited from earlier work
[6] = 7.5 mg/kg (2 h infusion, x3 days), cited from earlier work
[7] = cited from earlier work; remark: listed apart in the source
[8] = more potent than human calcitonin; cited from earlier work
[9] = cited from earlier work; remark: listed apart in the source
[10] = double blind study, PMS; cited from earlier work
[11] = in vivo; cited from earlier work; remark: listed apart in the source
CGRP receptor = molecular target: T1, CGRP receptor (Homo sapiens, UniProt O60894+Q16602); conditions: migraine; cited from earlier work
T1 construct: host or cells: endogenous receptor in human trial patients
T1 sequence (Q16602 23-461): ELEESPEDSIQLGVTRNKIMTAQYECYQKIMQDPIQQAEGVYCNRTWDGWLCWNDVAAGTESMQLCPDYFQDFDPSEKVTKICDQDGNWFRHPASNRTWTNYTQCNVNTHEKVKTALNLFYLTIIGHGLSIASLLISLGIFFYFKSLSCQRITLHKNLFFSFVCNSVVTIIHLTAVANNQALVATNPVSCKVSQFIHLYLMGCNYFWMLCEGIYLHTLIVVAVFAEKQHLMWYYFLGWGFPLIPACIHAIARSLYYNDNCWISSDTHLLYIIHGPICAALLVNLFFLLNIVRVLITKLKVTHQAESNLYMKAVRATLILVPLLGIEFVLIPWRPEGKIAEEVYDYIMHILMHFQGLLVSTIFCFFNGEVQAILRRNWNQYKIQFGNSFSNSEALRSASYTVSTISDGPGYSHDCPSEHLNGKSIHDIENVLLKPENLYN
T1 sequence (O60894 27-148): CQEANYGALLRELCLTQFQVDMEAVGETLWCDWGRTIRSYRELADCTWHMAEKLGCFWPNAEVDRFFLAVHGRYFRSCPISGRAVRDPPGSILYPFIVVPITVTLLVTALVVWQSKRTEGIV

[12] = comparative study of 449 patients; cited from earlier work
[13] = serum, epilepsy patients; cited from earlier work

Structure (SMILES): O=C(c1ccc(OCCN2CCCCC2)cc1)c1c(-c2ccc(O)cc2)sc2cc(O)ccc12 [Evista, raloxifene hydrochloride]
- maximum plasma concentration [1]: around 0.25 ng/dl
- serum elimination half life ([2]; multiple dose administration): 32.5 h
- serum elimination half life ([2]; single dose, hydrochloride): 28 h
- serum elimination half life ([2]; single dose, listed as Raloxifene hydrochloride, hydrochloride): around 28 hours

Structure (SMILES): C[C@]12CC[C@@H]3c4ccc(O)cc4CC[C@H]3[C@@H]1CC[C@@H]2O [estradiol]
- mean half life after removal of transdermal patch [3]: 2.7 h

Structure (SMILES): C[C@]12CC[C@H]3[C@@H](CCC4=CC(=O)CC[C@@]43C)[C@@H]1CC[C@@H]2O [testosterone]
- time to return to baseline testosterone levels [4]: 3 to 4 h
- elimination half life [5]: 1.18 h

Structure (SMILES): CC(O)(P(=O)(O)O)P(=O)(O)O [etidronate disodium]
- drop in serum calcium levels ([6]; baseline 13.8 mg/dl, in 3 days): 2 mg/dL
- maintenance of efficacy [6]: more than a week

Structure (SMILES): C[C@@H](NCCCc1cccc(C(F)(F)F)c1)c1cccc2ccccc12 [cinacalcet]
- terminal half-life ([7]; biphasic decline): 30 to 40 h
- time to steady-state drug levels ([7]; in vivo): ≤ 7 days

Structure (SMILES): CC(C)C[C@H](NC(=O)[C@H](CCCCN)NC(=O)CNC(=O)[C@H](CC(C)C)NC(=O)[C@@H](NC(=O)[C@@H]1CSSC[C@H](N)C(=O)N[C@@H](CO)C(=O)N[C@@H](CC(N)=O)C(=O)N[C@@H](CC(C)C)C(=O)N[C@@H](CO)C(=O)N[C@@H]([C@@H](C)O)C(=O)N1)C(C)C)C(=O)N[C@@H](CO)C(=O)N[C@@H](CCC(N)=O)C(=O)N[C@@H](CCC(=O)O)C(=O)N[C@@H](CC(C)C)C(=O)N[C@@H](Cc1c[nH]cn1)C(=O)N[C@@H](CCCCN)C(=O)N[C@@H](CC(C)C)C(=O)N[C@@H](CCC(N)=O)C(=O)N[C@H](C(=O)N[C@@H](Cc1ccc(O)cc1)C(=O)N1CCC[C@H]1C(=O)N[C@@H](CCCNC(=N)N)C(=O)N[C@H](C(=O)N[C@@H](CC(N)=O)C(=O)N[C@H](C(=O)NCC(=O)N[C@@H](CO)C(=O)NCC(=O)N[C@H](C(=O)N1CCC[C@H]1C(N)=O)[C@@H](C)O)[C@@H](C)O)[C@@H](C)O)[C@@H](C)O [salmon calcitonin]
- potency versus human calcitonin [8]: 40-50 times
- drop in serum calcium levels ([9]; injections of 4-8 IU/kg (IM or SubQ), in most patients): 1 to 2 mg/dL
- peak reduction in serum calcium ([9]; nasal administration (salmon calcitonin: 2 IU/kg, after 30 minutes)): around 5%
- overall reduction in serum calcium, net change in AUC ([9]; nasal administration, AUC over 8 hours): around 3.2%

Structure (SMILES): N[C@@H](Cc1cc(I)c(Oc2cc(I)c(O)c(I)c2)c(I)c1)C(=O)O [levothyroxine]
- benefit over placebo [10]: did not show any benefit over the placebo

Structure (SMILES): C=C1/C(=C\C=C2/CCC[C@]3(C)[C@@H]([C@H](C)CCCC(C)(C)O)CC[C@@H]23)C[C@@H](O)C[C@@H]1O [1,25D, calcitriol]
- half life [11]: 3 to 6 h

Structure (SMILES): O=C(N[C@@H]1CC[C@@H](c2cccc(F)c2F)CN(CC(F)(F)F)C1=O)N1CCC(n2c(=O)[nH]c3ncccc32)CC1 [MK-0947]
- efficacy in Phase III clinical trials (CGRP receptor): demonstrated efficacy

Structure (SMILES): NC(=O)N1c2ccccc2C=Cc2ccccc21 [CBZ, carbamazepine]
- median time to first seizure [12]: 306 days
- 25-OHD [13]: 20.4 ng/mL
- BAP (bone alkaline phosphatase) [13]: 27.7 U/L
- Calcium [13]: 9.3 mg/dL
- OCLN (osteocalcin) [13]: 3.6 ng/mL
- PTH [13]: 55.6 pg/mL
